For this assay, the target named is T1, FXR (Rattus norvegicus, UniProt Q62735).
T1 sequence (Q62735 1-469): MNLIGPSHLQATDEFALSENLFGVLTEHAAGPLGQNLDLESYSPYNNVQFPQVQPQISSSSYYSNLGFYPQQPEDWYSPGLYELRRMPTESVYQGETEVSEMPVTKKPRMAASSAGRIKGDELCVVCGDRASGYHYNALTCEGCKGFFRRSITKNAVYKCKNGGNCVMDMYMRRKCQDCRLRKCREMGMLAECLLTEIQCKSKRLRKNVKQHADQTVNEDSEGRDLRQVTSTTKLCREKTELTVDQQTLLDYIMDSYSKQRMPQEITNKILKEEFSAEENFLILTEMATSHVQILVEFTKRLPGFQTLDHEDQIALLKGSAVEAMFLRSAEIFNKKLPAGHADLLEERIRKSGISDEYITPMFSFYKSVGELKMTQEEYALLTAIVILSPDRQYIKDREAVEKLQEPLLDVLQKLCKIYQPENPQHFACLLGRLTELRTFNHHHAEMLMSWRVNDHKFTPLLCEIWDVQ
T1 sequence (P28700 1-467 partner): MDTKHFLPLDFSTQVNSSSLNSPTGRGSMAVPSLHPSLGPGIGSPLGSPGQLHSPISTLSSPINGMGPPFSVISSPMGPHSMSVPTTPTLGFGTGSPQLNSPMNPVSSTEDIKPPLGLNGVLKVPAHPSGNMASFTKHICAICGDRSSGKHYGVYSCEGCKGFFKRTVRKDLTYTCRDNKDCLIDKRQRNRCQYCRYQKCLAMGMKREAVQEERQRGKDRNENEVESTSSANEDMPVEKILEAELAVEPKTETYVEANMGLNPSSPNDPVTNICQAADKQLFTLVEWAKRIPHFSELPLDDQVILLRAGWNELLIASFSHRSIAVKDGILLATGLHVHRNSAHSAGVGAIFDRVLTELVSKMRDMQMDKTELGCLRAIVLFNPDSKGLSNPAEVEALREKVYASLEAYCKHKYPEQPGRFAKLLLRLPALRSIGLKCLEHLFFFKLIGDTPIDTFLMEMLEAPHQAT
Description: cell-based. The settings on record: for FXR-dependent CAT activity, induction: 50 μM. In outline:
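CHO cells co-transfected with FXR, mouse RXRα and a (EcRE)5-ΔMTV-CAT reporter, with β-galactosidase for normalization. An RXR-dependent CRBPII-CAT reporter was run in parallel. Cells were exposed to candidate juvenoids for 24 h; CAT activity normalized to β-gal and expressed as fold induction over vehicle controls.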

The mark [1] stands for this setting: final dose of 50 ∝M, 1 = induction less than 2-fold below cytotoxic doses.

Values joined by “and” are separate entries in the source; they are usually repeats but may differ in a detail not shown here. Equal values may be shown once.

Consider `CC(C)(O)CC[C@@H](O)[C@](C)(O)[C@H]1CC[C@@]2(O)C3=CC(=O)[C@@H]4C[C@@H](O)[C@@H](O)C[C@]4(C)[C@H]3CC[C@]12C` [20E, 20-hydroxyecdysone], for which the “FXR-dependent activity, induction” value (dose not stated) is on record as “unresponsive”.

As to `COC(=O)/C=C(\C)CC/C=C(\C)CC[C@H]1OC1(C)C` [JHIII, juvenile hormone III], the “dose that elicits FXR-dependent activity in the CHO assay” value came out at 2 µM. For the same molecule, under “listed as JH III”, the “FXR-dependent CAT activity, induction” value worked out at 15 fold. The “FXR-dependent CAT activity, induction” value (listed as juvenile hormone III) came out at 20 fold. Besides, under setting [1], the “FXR ACTIVITY (fold-induction)” value came out at 20 fold-induction.

For the molecule `CC(C)=CCCC(C)=CCCC(C)=CC(=O)O` [farnesoic acid], the “FXR-dependent CAT activity, induction” value was 2 fold and 3 fold. In addition, the “FXR ACTIVITY (fold-induction)” value under setting [1] was found to be 3 fold-induction.

`COC(=O)/C=C(\C)CC/C=C(\C)CCC=C(C)C` [methyl farnesoate]: the “FXR-dependent CAT activity, induction” value was found to be 6 fold.

Turning to `CC(C)CC[C@@H](O)[C@](C)(O)[C@H]1CC[C@@]2(O)C3=CC(=O)[C@]4(O)C[C@@H](O)[C@@H](O)C[C@]4(C)[C@H]3[C@H](O)C[C@]12C` [murA, muristerone A], the “FXR-dependent activity, induction” value (dose not stated) is “unresponsive”.

Turning to juvocimene, under “25 μM”, the “FXR-dependent activity, induction” value is 5 fold. For the same molecule, where the note is “dose 25 μM”, the “FXR ACTIVITY (fold-induction)” value was found to be 9 fold-induction. For the same molecule, the “RXR mediated transcription, increase” value (plant-derived JH agonists examined as FXR effectors) was 10 fold.
